Measured values: patent US20230146455A1, “TREATMENT OF INFLAMMATORY DISEASES WITH PEPTIDES AND PHARMACEUTICAL COMPOSITIONS” (Yuyu Pharma, Inc., priority 2020, published 2023)
“And” between values parts separate entries of the source, which are not always exact repeats. Identical values can stand only once. Where a SMILES comes first, the peptide text is derived from it. [ ]: non-standard residue; d: D form. Hyp = O=C(O)[C@@H]1C[C@@H](O)CN1

System: IL-6
Assay: Example 9 Luminex, LPS hPBMCs: IL-6
Assay type: cell-based, human
Conditions: Bead IL-6
Method: Treatment Human PBMCs were pretreated with YY-101, YDE-011 and YDE-043 or reference compound; Xiidra® at various concentration (ranging from 1 nM to 100 uM) for 2 h before stimulation. An equal volume of 0.5% DMSO was used as a vehicle control. Then, the cells were treated with LPS at 5 ug/ml. The supernatants from treated cells were harvested at 24 h and placed in a 96 well for Luminex cytokine & chemokine profiling using a Luminex 200 multiplex assay (Luminex; R&D system, USA).
The main study arm with triplicate wells per group in a 24-well plate: • 1. Blank • 2. PBMC: 0.5% DMSO • 3. PBMC+LPS (5 ug/ml) • 4. PBMC+YY-101 100 uM • 5. PBMC+YY-101 10 uM • 6. PBMC+YY-101 1 uM • 7. PBMC+YY-101 0.1 uM • 8. PBMC+YY-101 0.01 uM • 9. PBMC+LPS (5 ug/ml)+Xiidra®100 uM • 10. PBMC+LPS (5 ug/ml)+Xiidra® 10 uM • 11. PBMC+LPS (5 ug/ml)+Xiidra® 1 uM • 12. PBMC+LPS (5 ug/ml)+Xiidra®0.1 uM • 13. PBMC+LPS (5 ug/ml)+Xiidra®0.01 uM • 14. PBMC+LPS (5 ug/ml)+Xiidra®0.001 uM • 15. PBMC+LPS (5 ug/ml)+YY-101 100 uM • 16. PBMC+LPS (5 ug/ml)+YY-101 10 uM • 17. PBMC+LPS (5 ug/ml)+YY-101 1 uM • 18. PBMC+LPS (5 ug/ml)+YY-101 0.1 uM • 19. PBMC+LPS (5 ug/ml)+YY-101 0.01 uM • 20. PBMC+LPS (5 ug/ml)+YY-101 0.001 uM • 21. PBMC+LPS (5 ug/ml)+YDE-011 100 uM • 22. PBMC+LPS (5 ug/ml)+YDE-011 10 uM • 23. PBMC+LPS (5 ug/ml)+YDE-011 1 uM • 24. PBMC+LPS (5 ug/ml)+YDE-011 0.1 uM • 25. PBMC+LPS (5 ug/ml)+YDE-011 0.01 uM • 26. PBMC+LPS (5 ug/ml)+YDE-011 0.001 uM • 27. PBMC+LPS (5 ug/ml)+YDE-043 100 uM • 28. PBMC+LPS (5 ug/ml)+YDE-043 10 uM • 29. PBMC+LPS (5 ug/ml)+YDE-043 1 uM • 30. PBMC+LPS (5 ug/ml)+YDE-043 0.1 uM • 31. PBMC+LPS (5 ug/ml)+YDE-043 0.01 uM • 32. PBMC+LPS (5 ug/ml)+YDE-043 0.001 uM
Multiplex assay was used to measure 30 cytokines and chemokines. The 1:2, 1:10 and 1:200 diluted cell supernatant and serial dilution of the standard were dispensed into a 96 well plate at 50 ul/well. Then, the pre-mixed cocktail of antibody-coated magnetic beads was dispensed at 50 ul/well and incubated at room temperature for 2 h in a horizontal orbital microplate shaker at 800±500 rpm. The beads were washed using a magnetic device to prevent loss. The biotin-antibody was dispensed in 50 ul of each well and incubated at room temperature for 1 h in a shaker at 800±500 rpm. After washing, streptavidin-PE was added at 50 ul/well and incubated at room temperature for 30 min in a shaker under the same conditions. Finally, after washing, wash buffer (100 ul/well) was added to the plate and incubated in a shaker for 2 min. The Luminex™ 200 setting were set according to the manufacturer's protocol. The data was calculated with a standard five-parameter logistic nonlinear regression analysis of the data (xPonent software 4.2, USA). The levels of cytokine/chemokine are normalized to the live cell counts (1×10^5 cells/mL) and presented as concentrations per mL (pg/mL or ng/mL).

[1] = PBMC + LPS(5 ug/ml), 0.001 uM, Mean
[2] = PBMC + LPS(5 ug/ml), 0.001 uM, single replicates
[3] = PBMC + LPS(5 ug/ml), 0.01 uM, Mean
[4] = PBMC + LPS(5 ug/ml), 0.01 uM, single replicates
[5] = PBMC + LPS(5 ug/ml), 0.1 uM, Mean
[6] = PBMC + LPS(5 ug/ml), 0.1 uM, single replicates
[7] = PBMC + LPS(5 ug/ml), 1 uM, Mean
[8] = PBMC + LPS(5 ug/ml), 1 uM, single replicates
[9] = PBMC + LPS(5 ug/ml), 10 uM, Mean
[10] = PBMC + LPS(5 ug/ml), 10 uM, single replicates
[11] = PBMC + LPS(5 ug/ml), 100 uM, Mean
[12] = PBMC + LPS(5 ug/ml), 100 uM, single replicates
[13] = PBMC without LPS, 0.01 uM, Mean
[14] = PBMC without LPS, 0.01 uM, single replicates
[15] = PBMC without LPS, 0.1 uM, single replicates
[16] = PBMC without LPS, 1 uM, single replicates
[17] = PBMC without LPS, 10 uM, single replicates
[18] = PBMC without LPS, 100 uM, single replicates

CC(C)C[C@H](NC(=O)CNC(=O)[C@H](CC(=O)O)NC(=O)[C@H](CCC(N)=O)NC(=O)CNC(=O)[C@@H]1C[C@@H](O)CN1)C(=O)N[C@@H](C)C(=O)NCC(=O)N1CCC[C@H]1C(=O)N[C@@H](CCCCN)C(=O)O [YY-101] (H-[Hyp]GQDGLAGPK-OH; N-terminus and C-terminus assumed)
Concentration [1]: 12498.5 pg/mL | MFI [1]: 355.4 | conc/live cell [1]: 1952.7 pg/10^5 | Concentration [2]: 13037.8 pg/mL and 12646.1 pg/mL and 11811.7 pg/mL | MFI [2]: 371.3 and 359.8 and 335.3 | conc/live cell [2]: 2287.3 pg/10^5 and 1781.1 pg/10^5 and 1789.6 pg/10^5 | Concentration [3]: 13304.7 pg/mL | MFI [3]: 379.1 | conc/live cell [3]: 2159.4 pg/10^5 | Concentration [4]: 13276.3 pg/mL and 13531.9 pg/mL and 13106.0 pg/mL | MFI [4]: 378.3 and 385.8 and 373.3 | conc/live cell [4]: 2074.4 pg/10^5 and 2255.3 pg/10^5 and 2148.5 pg/10^5 | Concentration [5]: 12816.4 pg/mL | MFI [5]: 364.8 | conc/live cell [5]: 2203.2 pg/10^5 | Concentration [6]: 12441.7 pg/mL and 13157.1 pg/mL and 12850.5 pg/mL | MFI [6]: 353.8 and 374.8 and 365.8 | conc/live cell [6]: 2006.7 pg/10^5 and 2530.2 pg/10^5 and 2072.7 pg/10^5 | Concentration [7]: 13020.8 pg/mL | MFI [7]: 370.8 | conc/live cell [7]: 2001.1 pg/10^5 | Concentration [8]: 13242.2 pg/mL and 12867.5 pg/mL and 12952.6 pg/mL | MFI [8]: 377.3 and 366.3 and 368.8 | conc/live cell [8]: 2101.9 pg/10^5 and 1812.3 pg/10^5 and 2089.1 pg/10^5 | Concentration [9]: 14020.8 pg/mL | MFI [9]: 400.1 | conc/live cell [9]: 2132.1 pg/10^5 | Concentration [10]: 13975.0 pg/mL and 15049.6 pg/mL and 13037.8 pg/mL | MFI [10]: 398.8 and 430.3 and 371.3 | conc/live cell [10]: 2329.2 pg/10^5 and 2351.5 pg/10^5 and 1715.5 pg/10^5 | Concentration [11]: 15533.5 pg/mL | MFI [11]: 444.4 | conc/live cell [11]: 2685.2 pg/10^5 | Concentration [12]: 16142.7 pg/mL and 15459.3 pg/mL and 14998.4 pg/mL | MFI [12]: 462.3 and 442.3 and 428.8 | conc/live cell [12]: 2562.3 pg/10^5 and 2493.4 pg/10^5 and 2999.7 pg/10^5 | MFI [13]: 3.3 | conc/live cell [13]: 0.0 pg/10^5 | MFI [14]: 4.3 and 2.3 | conc/live cell [14]: 0.0 pg/10^5 | MFI (PBMC without LPS, 0.1 uM, Mean): 1.3 | conc/live cell (PBMC without LPS, 0.1 uM, Mean): 0.0 pg/10^5 | MFI [15]: 1.3 | conc/live cell [15]: 0.0 pg/10^5 | MFI (PBMC without LPS, 1 uM, Mean): 1.8 | conc/live cell (PBMC without LPS, 1 uM, Mean): 0.0 pg/10^5 | MFI [16]: 2.3 and 1.3 | conc/live cell [16]: 0.0 pg/10^5 | Concentration (PBMC without LPS, 10 uM, Mean): 880.7 pg/mL | MFI (PBMC without LPS, 10 uM, Mean): 15.3 | conc/live cell (PBMC without LPS, 10 uM, Mean): 68.8 pg/10^5 | Concentration [17]: 880.7 pg/mL | MFI [17]: 27.3 and 3.3 | conc/live cell [17]: 137.6 pg/10^5 and 0.0 pg/10^5 | Concentration (PBMC without LPS, 100 uM, Mean): 524.7 pg/mL | MFI (PBMC without LPS, 100 uM, Mean): 15.8 | conc/live cell (PBMC without LPS, 100 uM, Mean): 41.0 pg/10^5 | Concentration [18]: 524.7 pg/mL | MFI [18]: 19.8 and 11.8 | conc/live cell [18]: 82.0 pg/10^5 and 0.0 pg/10^5
